Patent US8003648B2, “Heterocyclic GPR40 modulators” (Amgen Inc., priority 2006, dated 2011)

Target: T1, human GPR40 (Homo sapiens, UniProt O14842)
T1 construct: host or cells: CHO cells
Test: Cell-based aequorin assay using human GPR40
Settings: activation of human GPR40; CHO cells stably transfected with GPR40 and Aequorin; 0.01% HSA; aequorin luminescence
Protocol: Cell-based aequorin assays were employed to characterize the modulatory activity of compounds on the GPR40 signaling pathway. In an exemplary assay, CHO cells were stably transfected with both GPR40 and Aequorin (Euroscreen). Cells were detached from the tissue culture dish with 2 mL of trypsin (0.25% (w/v)). Trypsinization was halted with 28 mL of Hanks Buffered Salt Solution containing 20 mM Hepes (H/HBSS) and 0.01% fatty acid-free human serum albumin (HSA). Coelantrazine is added to 1 ug/mL, and the cells were incubated for 2 hours at room temperature. Compounds were dissolved in DMSO for preparation of 10 mM stock solutions. Compounds were diluted in H/HBSS containing 0.01% HSA. Serial dilutions of the test compounds were prepared to determine dose response.
Aequorin luminescence measurements were made using an EG&G Berthold 96-well luminometer, and the response was measured over a 20 second interval after cells and compounds were mixed. The maximum relative light units was plotted to determine dose response. The EC50 (effective concentration to reach 50% maximal response) was determined from the dose response plot.
Table 1 presents representative data (EC50 values) obtained for exemplary compounds of the invention for the activation of human GPR40. […]

T1 sequence (O14842 whole entry): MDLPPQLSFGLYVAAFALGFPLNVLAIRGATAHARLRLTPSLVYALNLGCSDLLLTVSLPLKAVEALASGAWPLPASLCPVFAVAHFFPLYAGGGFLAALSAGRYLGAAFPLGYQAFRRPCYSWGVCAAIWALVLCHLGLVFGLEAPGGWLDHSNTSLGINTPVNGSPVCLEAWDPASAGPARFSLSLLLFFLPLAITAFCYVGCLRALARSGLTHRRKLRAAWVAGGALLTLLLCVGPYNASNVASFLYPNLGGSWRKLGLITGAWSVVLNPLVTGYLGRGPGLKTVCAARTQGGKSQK

Row | SMILES | EC50
1 | O=C(O)C[C@@H](c1ccc(OCCOc2ccc(C(F)(F)F)cc2)cc1)c1ccon1 [Example 47, (S)-3-(Isoxazol-3-yl)-3-(4-(2-(4-(trifluoromethyl)phenoxy)ethoxy)phenyl)propanoic acid] | 100 to 1000 nM
2 | O=C(O)C[C@@H](c1ccc(OCCCOc2ccc(C(F)(F)F)cc2)cc1)c1ccon1 [Example 48] | 100 to 1000 nM
3 | O=C(O)C[C@@H](c1ccc(OCCCCOc2ccc(C(F)(F)F)cc2)cc1)c1ccon1 [Example 49] | 100 to 1000 nM
4 | Cc1oc(-c2ccc(C(F)(F)F)cc2)nc1COc1ccc([C@H](CC(=O)O)c2ccon2)cc1 [Example 50, (S)-3-(Isoxazol-3-yl)-3-(4-((5-methyl-2-(4-(trifluoromethyl)phenyl)oxazol-4-yl)methoxy)phenyl)propanoic acid] | 100 to 1000 nM
5 | Cc1nc(-c2ccc(C(F)(F)F)cc2)oc1COc1ccc([C@H](CC(=O)O)c2ccon2)cc1 [Example 51, (S)-3-(Isoxazol-3-yl)-3-(4-((4-methyl-2-(4-(trifluoromethyl)phenyl)oxazol-5-yl)methoxy)phenyl)propanoic acid] | 100 to 1000 nM
6 | Cc1oc(-c2ccc(C(F)(F)F)cc2)cc1COc1ccc([C@H](CC(=O)O)c2ccon2)cc1 [Example 52, (S)-3-(Isoxazol-3-yl)-3-(4-((2-methyl-5-(4-(trifluoromethyl)phenyl)furan-3-yl)methoxy)phenyl)propanoic acid] | 10 to 100 nM
7 | Cc1oc(-c2ccc(Cl)cc2)cc1COc1ccc([C@H](CC(=O)O)c2ccon2)cc1 [Example 53, (S)-3-(4-((5-(4-Chlorophenyl)-2-methylfuran-3-yl)methoxy)phenyl)-3-(isoxazol-3-yl)propanoic acid] | 10 to 100 nM
8 | CCN(CC)Cc1ccc(-c2nc(C)c(COc3ccc([C@H](CC(=O)O)c4ccon4)cc3)s2)cc1 [Example 54, (S)-3-(4-((2-(4-((Diethylamino)methyl)phenyl)-4-methylthiazol-5-yl)methoxy)phenyl)-3-(isoxazol-3-yl)propanoic acid] | 1000 to 10000 nM
9 | Cc1nc(-c2ccc(CCCO)cc2)sc1COc1ccc([C@H](CC(=O)O)c2ccon2)cc1 [Example 55, (S)-3-(4-((2-(4-(3-Hydroxypropyl)phenyl)-4-methylthiazol-5-yl)methoxy)phenyl)-3-(isoxazol-3-yl)propanoic acid] | 1000 to 10000 nM
10 | CCCCc1ccc(-c2ccc(COc3ccc([C@H](CC(=O)O)c4ccon4)cc3)s2)cc1 [Example 60, (3S)-3-(4-(((5-(4-butylphenyl)-2-thienyl)methyl)oxy)phenyl)-3-(3-isoxazolyl)propanoic acid] | 10 to 100 nM
11 | O=C(O)C[C@@H](c1ccc(OCc2ccc(-c3ccc(C(F)(F)F)cc3)s2)cc1)c1ccon1 [Example 61, (3S)-3-(3-Isoxazolyl)-3-(4-(((5-(4-(trifluoromethyl)phenyl)-2-thienyl)methyl)oxy)phenyl)propanoic acid] | 10 to 100 nM
12 | Cc1cc(-c2ccc(C(F)(F)F)cc2)sc1COc1ccc([C@H](CC(=O)O)c2ccon2)cc1 [Example 62, (3S)-3-(3-Isoxazolyl)-3-(4-(((3-methyl-5-(4-(trifluoromethyl)phenyl)-2-thienyl)methyl)oxy)phenyl)propanoic acid] | 10 to 100 nM
13 | O=C(O)C[C@@H](c1ccc(OCc2noc(-c3ccccc3)n2)cc1)c1ccon1 [Example 63] | 1000 to 10000 nM
14 | COc1ccccc1-c1nc(COc2ccc([C@H](CC(=O)O)c3ccon3)cc2)no1 [Example 64] | 1000 to 10000 nM
15 | O=C(O)C[C@@H](c1ccc(OCc2noc(-c3ccc(C(F)(F)F)cc3)n2)cc1)c1ccon1 [Example 65] | 1000 to 10000 nM
16 | O=C(O)C[C@@H](c1ccc(OCc2noc(-c3cccc(C(F)(F)F)c3)n2)cc1)c1ccon1 [Example 66] | 1000 to 10000 nM
17 | O=C(O)C[C@@H](c1ccc(OCc2nc(-c3ccccc3)no2)cc1)c1ccon1 [Example 67] | 1000 to 10000 nM
18 | O=C(O)C[C@@H](c1ccc(OCc2nc(-c3cccc(C(F)(F)F)c3)no2)cc1)c1ccon1 [Example 68] | 1000 to 10000 nM

Next, values leading:

Row | EC50 | SMILES
19 | 100 to 1000 nM | CC1(C)CCC=C1c1ccc(COc2ccc([C@H](CC(=O)O)c3ccon3)cc2)cc1OC(F)(F)F [Example 36, (S)-3-(4-(4-(5,5-Dimethylcyclopent-1-enyl)-3-(trifluoromethoxy)benzyloxy)phenyl)-3-(isoxazol-3-yl)propanoic acid]
20 | 10 to 100 nM | CC(C)c1ccc(COc2ccc([C@H](CC(=O)O)c3ccon3)cc2)cc1OC(F)(F)F [Example 37, (S)-3-(4-(4-Isopropyl-3-(trifluoromethoxy)benzyloxy)phenyl)-3-(isoxazol-3-yl)propanoic acid]
21 | 10 to 100 nM | CC1(C)CCC=C1c1cc(COc2ccc([C@H](CC(=O)O)c3ccon3)cc2)ccc1OC(F)(F)F [Example 38, (S)-3-(4-(3-(5,5-Dimethylcyclopent-1-enyl)-4-(trifluoromethoxy)benzyloxy)phenyl)-3-(isoxazol-3-yl)propanoic acid]
22 | 100 to 10000 nM | Cc1cc([C@@H](CC(=O)O)c2ccc(OCc3cccc(-c4ccc(C(F)(F)F)cc4)c3)cc2)no1 [Example 39, (S)-3-(4-(3-(4-(Trifluoromethyl)phenyl)benzyloxy)phenyl)-3-(5-methylisoxazol-3-yl)propanoic acid]
23 | 10 to 100 nM | CC1(C)CCC(C)(C)c2cc(COc3ccc([C@H](CC(=O)O)c4ccon4)cc3)ccc21 [Example 40, (S)-3-(Isoxazol-3-yl)-3-(4-((5,5,8,8-tetramethyl-5,6,7,8-tetrahydronaphthalen-2-yl)methoxy)phenyl)propanoic acid]
24 | 1000 to 10000 nM | CC1(C)CCC(C)(C)c2cc(COc3ccc([C@@H](CC(=O)O)c4ccon4)cc3)ccc21 [Example 41, (R)-3-(Isoxazol-3-yl)-3-(4-((5,5,8,8-tetramethyl-5,6,7,8-tetrahydronaphthalen-2-yl)methoxy)phenyl)propanoic acid]
25 | 100 to 1000 nM | CC1(C)CCC(C)(C)c2cc(COc3ccc(C(CC(=O)O)C4=NOCC4)cc3)ccc21 (stereo not drawn) [Example 42, 3-(4,5-Dihydroisoxazol-3-yl)-3-(4-((5,5,8,8-tetramethyl-5,6,7,8-tetrahydronaphthalen-2-yl)methoxy)phenyl)propanoic acid]
26 | 100 to 1000 nM | CCOCCOc1cc(COc2ccc([C@H](CC(=O)O)c3ccon3)cc2)c(Br)cc1C(C)(C)C [Example 46, (S)-3-(4-(2-Bromo-4-tert-butyl-5-(2-ethoxyethoxy)benzyloxy)phenyl)-3-(isoxazol-3-yl)propanoic acid]
27 | 100 to 1000 nM | CCCCc1ccc(-c2cc(COc3ccc([C@H](CC(=O)O)c4ccon4)cc3)c(C)o2)cc1 [Example 56]
28 | 10 to 100 nM | Cc1nc(-c2ccc(Cl)cc2)sc1COc1ccc([C@H](CC(=O)O)c2ccon2)cc1 [Example 57, (S)-3-(Isoxazol-3-yl)-3-(4-((4-methyl-2-(4-chlorophenyl)thiazol-5-yl)methoxy)phenyl)propanoic acid]
29 | 10 to 100 nM | Cc1ccc(-c2nc(C)c(COc3ccc([C@H](CC(=O)O)c4ccon4)cc3)s2)cc1 [Example 58, (S)-3-(Isoxazol-3-yl)-3-(4-((4-methyl-2-(4-methylphenyl)thiazol-5-yl)methoxy)phenyl)propanoic acid]
30 | 1000 to 10000 nM | Cc1ccc(-c2nc(C)c(COc3ccc([C@@H](CC(=O)O)c4ccon4)cc3)s2)cc1 [Example 59, (R)-3-(Isoxazol-3-yl)-3-(4-((4-methyl-2-(4-methylphenyl)thiazol-5-yl)methoxy)phenyl)propanoic acid]
